The values below come from patent US7119073B2, “Peptides and their use as inhibitors of hepatitis C virus ns3 protease” (Istituto Di Ricerche Di Biologia Molecolare P. Angeletti SpA, priority 2001, dated 2006).

T2 sequence (P26663 1027-1657): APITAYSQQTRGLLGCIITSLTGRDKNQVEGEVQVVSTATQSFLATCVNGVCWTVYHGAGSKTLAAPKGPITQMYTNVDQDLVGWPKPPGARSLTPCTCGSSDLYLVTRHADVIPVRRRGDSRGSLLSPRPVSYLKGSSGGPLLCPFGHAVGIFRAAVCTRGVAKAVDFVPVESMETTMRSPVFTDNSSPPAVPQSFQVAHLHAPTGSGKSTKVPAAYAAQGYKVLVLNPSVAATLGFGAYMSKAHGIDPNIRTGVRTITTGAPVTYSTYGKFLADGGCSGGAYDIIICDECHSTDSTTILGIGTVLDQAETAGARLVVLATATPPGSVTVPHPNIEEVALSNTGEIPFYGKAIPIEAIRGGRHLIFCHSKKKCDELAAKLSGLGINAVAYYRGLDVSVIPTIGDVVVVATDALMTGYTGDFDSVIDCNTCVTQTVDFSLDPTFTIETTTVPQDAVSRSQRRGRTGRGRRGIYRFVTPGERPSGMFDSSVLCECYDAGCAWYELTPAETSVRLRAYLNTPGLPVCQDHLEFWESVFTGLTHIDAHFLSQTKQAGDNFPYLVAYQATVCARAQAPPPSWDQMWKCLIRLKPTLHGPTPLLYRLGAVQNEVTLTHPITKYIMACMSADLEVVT
T2 sequence (P26663 1658-1711): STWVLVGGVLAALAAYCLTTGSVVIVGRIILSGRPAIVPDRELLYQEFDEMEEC
T1 sequence (P26663 1027-1206, other chains not shown): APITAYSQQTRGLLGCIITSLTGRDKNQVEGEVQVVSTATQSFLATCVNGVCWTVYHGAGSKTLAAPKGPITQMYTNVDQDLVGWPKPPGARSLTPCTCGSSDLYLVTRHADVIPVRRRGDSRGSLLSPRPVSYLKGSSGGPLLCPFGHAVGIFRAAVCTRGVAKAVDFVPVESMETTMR

The first assay has as its target T1, NS3 protease domain complexed to a modified form of the NS4A peptide (Pep4AK) (Hepatitis C virus genotype 1b, UniProt P26663).
T1 construct: NS3 protease domain (residues 1027–1206 of the HCV polyprotein)
The assay is described as follows: HCV NS3 protease domain/NS4A cofactor peptide assay (Assay B). The class given is biochemical. The settings on record: NS3 protease domain/NS4A cofactor peptide assay; read-out: Assay B (IC50 class).
On to `CC(C)C[C@H](NC(=O)C1Cc2ccccc2N1)C(=O)N[C@@H](CC(F)F)C(=O)NCCc1c(F)cc(C(=O)O)cc1F` (stereo partly shown) [Compound 709], for which the IC50 was below 100 µM. On to `CC(C)CC(NC(=O)c1ccccc1-c1ccccc1C(=O)O)C(=O)NC(CC(F)F)C(=O)NCCc1ccc(C(=O)O)cc1Cl` (stereo not shown) [Compound 715], for which the IC50 was below 100 µM.

For `CC(C)CC(NC(=O)c1ccccc1-c1ccccc1C(=O)O)C(=O)NC(CS)C(=O)NCCc1ccccc1Cl` (stereo not shown) [Compound 716], the IC50 is below 100 µM.

For the compound `CC(C)CC(NC(=O)c1ccccc1-c1ccccc1C(=O)O)C(=O)NC(CS)C(=O)NCCc1ccc(Cl)cc1Cl` (stereo not shown) [Compound 717], the IC50 was below 100 µM. Take `CC(C)CC(NC(=O)c1ccccc1-c1ccccc1C(=O)O)C(=O)NC(CC(F)F)C(=O)NCCc1c(F)cc(C(=O)O)cc1F` (stereo not shown) [Compound 718]: the IC50 is below 100 µM. Regarding `CCOC(=O)C=Cc1cccc(CCNC(=O)C(CC(F)F)NC(=O)C(CC(C)C)NC(=O)c2ccccc2-c2ccccc2C(=O)O)c1` (stereo not shown) [Compound 719], the IC50 is below 100 µM. As for `CC(C)CC(NC(=O)c1ccccc1-c1ccccc1C(=O)O)C(=O)NC(CC(F)F)C(=O)NCCc1cccc(NCC(=O)O)c1` (stereo not shown) [Compound 720], the IC50 was below 100 µM.

With `CCOC(=O)CNc1cccc(CCNC(=O)C(CC(F)F)NC(=O)C(CC(C)C)NC(=O)c2ccccc2-c2ccccc2C(=O)O)c1` (stereo not shown) [Compound 721], the IC50 is below 100 µM.

Still in this assay, the particulars now being: Table 4; NS3 protease domain/Pep4AK; read-out: Assay B.
Regarding `CC(C)COC(=O)N[C@@H](CCC(=O)O)C(=O)N[C@@H](CCc1ccccc1)C(=O)N[C@@H](CS)C(=O)NCCc1ccccc1Cl` [Compound 414], the IC50 is below 100 µM. `CC(C)COC(=O)N[C@@H](CCC(=O)O)C(=O)NC1(C(=O)N[C@@H](CS)C(=O)NCCc2ccccc2Cl)Cc2ccccc2C1` [Compound 415]: the IC50 is below 100 µM. Still for that read-out and setting: as for `CC(C)COC(=O)N[C@@H](CCC(=O)O)C(=O)N(C)[C@@H](CC(C)C)C(=O)N[C@@H](CS)C(=O)NCCc1ccccc1Cl` [Compound 416], the figure is below 100 µM. Turning to `CC(C)COC(=O)N[C@@H](CCC(=O)O)C(=O)N1Cc2ccccc2C[C@H]1C(=O)N[C@@H](CS)C(=O)NCCc1ccccc1Cl` [Compound 417], the IC50 is below 100 µM.

`CC(C)COC(=O)NC(CCC(=O)O)C(=O)N1CCC1C(=O)NC(CS)C(=O)NCCc1ccccc1Cl` (stereo not shown) [Compound 418]: the IC50 is below 100 µM. The same measure, in the same setting: as for `CC(C)COC(=O)N[C@@H](CCC(=O)O)C(=O)N1C=CC[C@H]1C(=O)N[C@@H](CS)C(=O)NCCc1ccccc1Cl` [Compound 419], the figure is below 100 µM. The same measure, in the same setting: as for `CC(C)COC(=O)N[C@@H](CCC(=O)O)C(=O)N1C2CCCCC2C[C@H]1C(=O)N[C@@H](CS)C(=O)NCCc1ccccc1Cl` (stereo partly shown) [Compound 420], the figure is below 10 µM; as for `CC(C)COC(=O)N[C@@H](CCC(=O)O)C(=O)N1c2ccccc2C[C@H]1C(=O)N[C@@H](CC(F)F)C(=O)NCCc1ccc(C(=O)O)cc1Cl` [Compound 421], below 100 µM.

`CC(C)COC(=O)NC(CCC(=O)O)C(=O)N1C(C(=O)NC(CS)C(=O)NCCc2ccccc2Cl)CCC1c1ccccc1` (stereo not shown) [Compound 422]: the IC50 is below 100 µM.

A further assay has as its target T2, full length NS3 protein noncovalently complexed with the full-length NS4A cofactor protein (NS3/NS4A complex) (Hepatitis C virus genotype 1b, UniProt P26663).
T2 construct: full length NS3 protein spanning residues 1027–1657 of the HCV polyprotein
The assay is described as follows: Full-length NS3-NS4A heterodimer protein assay (Assay A). The class given is biochemical, hepatitis C virus (HCV). The settings on record: Table 1; full-length NS3/NS4A, NS5A-NS5B peptide substrate; read-out: Assay A. The method, then:
Full-Length NS3-NS4A Heterodimer Protein Assay (Assay A)
(Gallinari, P., Paolini, C., Brennan, D., Nardi, C., Steinkühler, C. and De Francesco, R. Modulation of hepatitis C virus NS3 protease and helicase activities through the interaction with NS4A. Biochemistry 38, 5620–5632, 1999)
In this assay the full length NS3 protein spanning residues 1027–1657 of the HCV polyprotein, noncovalently complexed with the full-length NS4A cofactor protein (residues 1658–1711) was used. Assays were performed in 60 μl of a buffer containing 50 mM Hepes pH 7.5, 0.15 M NaCl, 0.1% (v/v) Triton X-100, 15% (v/v) glycerol, 10 mM DTT, 2 nM NS3/NS4A complex. To this assay mix 10 μM (final concentration) of a peptide substrate corresponding to the NS5AB cleavage site and having the sequence of the NS5A-NS5B peptide, were added. Incubation times at 23° C. were adjusted to obtain <10% conversion. Reactions were stopped by the addition of 40 μl of 1% TFA. Cleavage was determined by HPLC using a Merck-Hitachi chromatograph equipped with an autosampler. 80 μl samples were injected on a Lichrospher C18 reversed phase cartridge column (4×74 mm, 5 μm, Merck) and fragments were separated using a 10–40% acetonitrile gradient at 5%/min using a flow rate of 2.5 ml/min. Peak detection was done by monitoring both the absorbance at 220 nm and tryptophan fluorescence (λex=280 nm, λem=350 nm). Cleavage products were quantitated by integration of chromatograms with respect to appropriate standards. Kinetic parameters were calculated from nonlinear least-squares fit of initial rates as a function of substrate concentration with the help of a Kaleidagraph software, assuming Michaelis-Menten kinetics.
Ki values of peptide inhibitors were calculated from substrate titration experiments performed in the presence of increasing amounts of inhibitor. Experimental data sets were simultaneously fitted to eg.1 using a multicurve fit macro with the help of a Sigmaplot software: V=(VmaxS)/(Km([…])+S); (eq.1) Alternatively, Ki values were derived from IC50 values, calculated using a four-parameter logistic function, according to eq.2: IC50=(1+S/Km)Ki (eq.2)
In the case of `CC(C)COC(=O)NC(C(=O)NC(CC(C)C)C(=O)NC(CC(F)F)C(=O)NCCc1ccccc1CCC(=O)O)C(C)C` (stereo not shown) [Compound 125], the IC50 was below 100 µM.

The assay is the same for the next values; noted with them: Table 5; full-length NS3/NS4A; read-out: AssayA.
In the case of `CC(C)COC(=O)N[C@H](C(=O)N1C[C@H]([S+]([O-])C2CCCCC2)C[C@H]1C(=O)N[C@@H](CC(F)F)C(=O)NCCc1c(F)cc(C(=O)O)cc1F)C(C)C` (mixture of isomers) [Compound 552], the IC50 was below 1 µM.

Regarding `CCC(Nc1cccc(CCNC(=O)[C@H](CC(F)F)NC(=O)[C@@H]2C[C@@H](c3ccccc3)CN2C(=O)[C@@H](NC(=O)OCC(C)C)C(C)C)c1)C(=O)O` (mixture of isomers) [Compound 563], the IC50 is below 10 µM.

On to `CC(C)COC(=O)N[C@H](C(=O)N1C[C@H](c2ccccc2)C[C@H]1C(=O)N[C@@H](CC(F)F)C(=O)NCCc1cccc(NC(C(=O)O)c2ccccc2)c1)C(C)C` (mixture of isomers) [Compound 564], for which the IC50 was below 10 µM. Take `CC(Oc1ccc(F)c(CCNC(=O)[C@H](CC(F)F)NC(=O)[C@@H]2C[C@@H](C3CCCCC3)CN2C(=O)[C@@H](NC(=O)OCC(C)(C)C)C(C)C)c1F)C(=O)O` (mixture of isomers) [Compound 567]: the IC50 is below 1 µM. The same measure, in the same setting: in the case of `CCC(Oc1ccc(F)c(CCNC(=O)[C@H](CC(F)F)NC(=O)[C@@H]2C[C@@H](C3CCCCC3)CN2C(=O)[C@@H](NC(=O)OCC(C)C)C(C)C)c1F)C(=O)O` (mixture of isomers) [Compound 568] it was below 1 µM; in that of `CC(C)COC(=O)N[C@H](C(=O)N1C[C@H](c2ccccc2)C[C@H]1C(=O)N[C@@H](CC(F)F)C(=O)NCCc1cccc(OC(C(=O)O)c2ccccc2)c1)C(C)C` (mixture of isomers) [Compound 569], below 10 µM. Still for that read-out and setting: as for `CC(C)COC(=O)N[C@H](C(=O)N1C[C@H](c2ccccc2)C[C@H]1C(=O)N[C@@H](CC(F)F)C(=O)NCCc1cccc(OC(C(=O)O)c2ccc(Br)cc2)c1)C(C)C` (mixture of isomers) [Compound 570], the figure is below 1 µM; as for `CC(C)COC(=O)N[C@H](C(=O)N1C[C@H](c2ccccc2)C[C@H]1C(=O)N[C@@H](CC(F)F)C(=O)NCCc1cc(OC(C(=O)O)c2cccc(Cl)c2)ccc1Cl)C(C)C` (mixture of isomers) [Compound 571], below 10 µM. Turning to `CC(C)COC(=O)NC(CCC(=O)O)C(=O)N1CCCC1C(=O)NC(CS)C(=O)NCCc1ccccc1Cl` (stereo not shown) [Compound 501], the IC50 is below 100 µM. `CC(C)COC(=O)NC(C(=O)N1CCCC1C(=O)NC(CC(F)F)C(=O)NCCc1c(F)cc(C(=O)O)cc1F)C(C)C` (stereo not shown) [Compound 502]: the IC50 was below 10 µM. On the same count and under the same terms, in the case of `CC(C)COC(=O)N[C@@H](CCC(=O)O)C(=O)N1C[C@H](O)C[C@H]1C(=O)N[C@@H](CS)C(=O)NCCc1ccccc1Cl` [Compound 503] it was below 100 µM. In the case of `COCCOCO[C@@H]1C[C@@H](C(=O)N[C@@H](CC(F)F)C(=O)NCCc2c(F)cc(C(=O)O)cc2F)N(C(=O)[C@@H](NC(=O)OCC(C)C)C(C)C)C1` [Compound 505], the IC50 was below 10 µM. Same read-out and setting: in the case of `CC(C)COC(=O)N[C@@H](CCC(=O)O)C(=O)N1C[C@H](c2ccccc2)CC1C(=O)N[C@@H](CS)C(=O)NCCc1ccccc1Cl` (stereo partly shown) [Compound 506] it was below 10 µM; in that of `CC(C)COC(=O)N[C@@H](CCC(=O)O)C(=O)N1C[C@H](OCc2ccccc2)C[C@H]1C(=O)N[C@@H](CS)C(=O)NCCc1ccccc1Cl` [Compound 507], below 10 µM; in that of `CC(C)COC(=O)N[C@@H](CCC(=O)O)C(=O)N1C[C@H](c2ccccc2)C[C@H]1C(=O)N[C@@H](CS)C(=O)NCCc1ccccc1Br` [Compound 508], below 100 µM. In the case of `CC(C)COC(=O)N[C@H](C(=O)N1C[C@H](OCc2ccc(C(=O)O)cc2)C[C@H]1C(=O)N[C@@H](CC(F)F)C(=O)NCCc1c(Cl)cccc1Cl)C(C)C` [Compound 509], the IC50 was below 100 µM.

For `CC(C)COC(=O)N[C@@H](CCC(=O)O)C(=O)N1C[C@H](c2ccccc2)C[C@H]1C(=O)N[C@@H](CC(F)F)C(=O)NCCc1ccccc1-c1ccccc1` [Compound 510], the IC50 is below 10 µM. With `CC(C)COC(=O)N[C@@H](CCC(=O)O)C(=O)N1C[C@H](c2ccccc2)C[C@H]1C(=O)N[C@@H](CC(F)F)C(=O)NCCC1=CCCCC1` [Compound 511], the IC50 was below 100 µM.

Consider `CC(C)COC(=O)N[C@@H](CCC(=O)O)C(=O)N1C[C@H](c2ccccc2)C[C@H]1C(=O)N[C@@H](CS)C(=O)NCCc1ccc(C(=O)O)cc1` [Compound 512], for which the IC50 is below 100 µM.

`O=C(O)CC[C@H](NS(=O)(=O)c1cccc2ccccc12)C(=O)N1C[C@H](c2ccccc2)C[C@H]1C(=O)N[C@@H](CS)C(=O)NCCc1ccc(C(=O)O)cc1` [Compound 513]: the IC50 is below 100 µM.

Still in this assay, the particulars now being: full-length NS3-NS4A heterodimer protein assay; read-out: Assay A (IC50 class).
As for `CC(C)C[C@H](NC(=O)C1(Cc2ccsc2C(=O)O)Cc2ccccc2N1)C(=O)N[C@@H](CC(F)F)C(=O)NCCc1cc2ccccc2[nH]1` (single isomer, unassigned) [Compound 707a], the IC50 is below 100 µM. As for `CC(C)C[C@H](NC(=O)C1(Cc2ccsc2C(=O)O)Cc2ccccc2N1)C(=O)N[C@@H](CC(F)F)C(=O)NCCc1cc2ccccc2[nH]1` (single isomer, unassigned) [Compound 707b], the IC50 is below 100 µM.
